{"source": "patent EP0689839A2", "about": "“Use of inhibitors of adenosine triphosphatase for the manufacture of a medicament for the treatment of disorders anociated with beta-amyloid peptide” (ELI LILLY AND COMPANY, priority 1994, dated 1996)", "key": {"[1]": {"tested_on": "β-amyloid peptide", "experiment": "β-Amyloid Peptide Production Inhibition (Cellular Assay), ELISA of conditioned media", "type": "cell-based", "settings": "normalized for cytotoxicity (MTT)", "experimental": "(§1) Two cell lines (human kidney cell line 293 and Chinese hamster ovary cell line CHO) were stably transfected with the gene for APP751 containing the double mutation Lys₆₅₁-Met₆₅₂ to Asn₆₅₁-Leu₆₅₂ (APP-751 numbering) commonly called the Swedish mutation using the method described in Citron, et al., Nature (London), 360:672-674 (1992). The transfected cell lines were designated as 293 751 SWE and CHO 751 SWE, and were plated in Corning 96 well plates at 2.5 x 10⁴ or 1 x 10⁴ cells per well respectively in Dulbecco's […] essential media (DMEM) plus 10% fetal bovine serum. Following overnight incubation at 37°C in an incubator equilibrated with 10% carbon dioxide (CO₂) and humidified air, the media were removed and replaced with 200 µl per well of media containing a macrolide. After a two hour pretreatment period, the media were again removed and replaced with fresh media containing the test compound and the cells were incubated for an additional two hours.\nAfter treatment, plates were centrifuged at 1200 x g for five minutes at room temperature to pellet cellular debris from the conditioned media. From each well, 100 µl of conditioned media were transferred into an ELISA plate precoated with antibody 266 against βamyloid peptide(13-28) (Seubert et al., supra.) and stored at 4°C overnight. An ELISA assay employing labelled antibody 6C6 (against β-amyloid peptide-1-16) was run the next day to measure the amount of β-amyloid peptide produced.\nThe results of the β-amyloid peptide ELISA were fit to a standard curve and expressed as ng/ml β-amyloid peptide. In order to normalize for cytotoxicity, these β-amyloid peptide results were divided by the MTT results and expressed as a percentage of the results from a drug-free control."}, "[2]": {"tested_on": "293 751 SWE and CHO 751 SWE", "experiment": "Cytotoxic effects / cellular viability by MTT in the cellular assay", "type": "cell-based", "experimental": "as §1\nCytotoxic effects of the compounds were measured by a modification of the method of Hansen, et al., Journal of Immununological Methods, 119:203-210 (1989). […] The difference in the OD562nm and the OD650nm was measured in a UVmax microplate reader as an indicator of the cellular viability."}, "[3]": {"tested_on": "β-amyloid peptide", "experiment": "β-amyloid peptide production in human fetal primary cortical cultures (ELISA)", "type": "cell-based", "settings": "1 µM; twenty four hour-conditioned medium; endogenous amyloid precursor protein", "experimental": "In order to better understand this phenomenon, human fetal primary cortical cultures, which secrete β-amyloid peptide as a result of endogenous amyloid precursor protein processing, were treated with 1 µM bafilomycin. Twenty four hour-conditioned medium was collected and evaluated using enzyme-linked immunosorbent assay (ELISA)."}, "[4]": {"tested_on": "human fetal primary cortical cultures", "experiment": "Cytotoxicity in human fetal primary cortical cultures", "type": "cell-based", "settings": "1 µM"}, "[5]": {"tested_on": "vacuolar ATPases", "settings": "relative to other bafilomycins; cited from earlier work"}, "[6]": {"settings": "1 µg/ml, read-out: Percent Inhibition"}}, "note": "Where “and” joins values, the source holds several entries; their conditions need not be identical. Equal values may be shown once.", "data": [{"compound": "CO/C1=C\\C(C)=C\\C(C)C(O)C(C)C/C(C)=C/C=C/C(OC)C(C(C)C(O)C(C)C2(O)CC(O)C(C)C(C(C)C)O2)OC1=O", "note": "(stereo not shown) [Bafilomycin A₁, bafilomycin A₁]", "values": [{"measurement": "Percent Inhibition", "setting": "[1]; 0.3 µM", "result": "91 ± 1% and 92 ± 1%"}, {"measurement": "inhibition at 0.3 µM", "setting": "[1]; 0.3 µM, read-out: Percent Inhibition", "result": "90 ± 2", "unit": "%"}]}, {"compound": "CO/C1=C\\C(C)=C\\C(C)C(O)C(C)C/C(C)=C/C=C/C(OC)C(C(C)C(O)C(C)C2(O)CC(OC(=O)/C=C/C(=O)O)C(C)C(C(C)C)O2)OC1=O", "note": "(stereo not shown) [Bafilomycin C₁]", "values": [{"measurement": "inhibition at 1 µg/mL", "setting": "[1]; [6]", "result": "90 ± 2", "unit": "%"}]}, {"compound": "CO/C1=C\\C(C)=C\\C(C)C(O)C(C)C/C(C)=C/C=C/C(OC)C(C(C)C(O)C(C)C(=O)/C=C/C(C)C(O)C(C)C)OC1=O", "note": "(stereo not shown) [Bafilomycin D, bafilomycin D]", "values": [{"measurement": "inhibition at 1 µg/mL", "setting": "[1]; [6]", "result": "4 ± 3", "unit": "%"}]}, {"compound": "C/C=C/[C@H]1O[C@@](O)([C@@H](C)[C@H](O)[C@H](C)[C@H]2OC(=O)/C(OC)=C/C(C)=C/[C@@H](C)[C@@H](O)[C@@H](CC)[C@@H](O)[C@H](C)C/C(C)=C/C=C/[C@@H]2OC)C[C@@H](O[C@H]2C[C@@H](O)[C@H](OC(N)=O)[C@@H](C)O2)[C@@H]1C", "note": "[Concanamycin A, concanamycin A]", "values": [{"measurement": "Percent Inhibition", "setting": "[1]; 1.2 µM", "result": "74 ± 4", "unit": "%"}, {"measurement": "Percent Viability", "setting": "[2]; 1.2 µM", "result": 97, "unit": "%"}]}, {"compound": "CO/C1=C\\C(C)=C\\[C@@H](C)[C@@H](O)[C@@H](C)C/C(C)=C/C=C/[C@H](OC)[C@@H]([C@@H](C)[C@@H](O)[C@H](C)[C@@]2(O)C[C@@H](O)[C@H](C)[C@@H](C(C)C)O2)OC1=O", "note": "[bafilomycin]", "values": [{"measurement": "inhibition of β-amyloid peptide production", "setting": "[3]", "result": "Greater than 75%"}, {"measurement": "cytotoxicity", "setting": "[4]", "result": "no cytotoxicity was observed"}]}, {"compound": "Bafilomycin B₁", "values": [{"measurement": "Percent Inhibition", "setting": "[1]; 1 µg/ml", "result": "87 ± 1", "unit": "%"}]}, {"compound": "bafilomycin A₁", "values": [{"measurement": "Percent Viability", "setting": "[2]; 0.3 µM", "result": "112% and 99% and 102%"}]}, {"compound": "bafilomycin D", "values": [{"measurement": "poorer inhibitor of vacuolar ATPases than other bafilomycins, especially bafilomycin A1", "setting": "[5]", "result": "~40", "unit": "fold"}]}, {"compound": "elaiophyline", "values": [{"measurement": "Percent Inhibition", "setting": "[1]; 0.6 µM", "result": "98 ± 2", "unit": "%"}, {"measurement": "Percent Inhibition", "setting": "[1]; 1.2 µM", "result": "100 ± 1", "unit": "%"}, {"measurement": "Percent Inhibition", "setting": "[1]; 2.4 µM", "result": "100 ± 2", "unit": "%"}, {"measurement": "Percent Inhibition", "setting": "[1]; 4.9 µM", "result": "100 ± 1", "unit": "%"}, {"measurement": "Percent Inhibition", "setting": "[1]; 9.8 µM", "result": "100 ± 1% and 131 ± 1%"}]}]}
